Measured values as given in ChEMBL document CHEMBL1201862, “PubChem BioAssay data set” (2004).
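Five concentrations, 48 hours, 96-well plates. Here, GI50 denotes the concentration required for 50% inhibition of growth.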 Activity calls are given as the source filed them. Cut-off read from the data, not from the text of the source: active = GI50 up to about 1.1 µM and inactive = higher.

Legend:
Assay in all cases: NCI tumour cell line growth inhibition, 48 h
[1] = system: A549
[2] = system: DU-145
[3] = system: SK-MEL-2
[4] = system: MOLT-4
[5] = system: NCI-H522
[6] = system: HT-29
[7] = system: SF-539
[8] = system: HOP-92
[9] = system: UACC-62
[10] = system: SNB-75
[11] = system: SK-OV-3
[12] = system: CAKI-1
[13] = system: Hs-578T
[14] = system: SNB-19
[15] = system: 786-0
[16] = system: TK-10
[17] = system: OVCAR-5
[18] = system: HCT-116
[19] = system: MDA-MB-435
[20] = system: SW-620
[21] = system: SK-MEL-5
[22] = system: NCI/ADR-RES
[23] = system: OVCAR-8
[24] = system: OVCAR-3
[25] = system: SR
[26] = system: IGROV-1
[27] = system: HL-60
[28] = system: SF-295
[29] = system: ACHN
[30] = system: LOX IMVI
[31] = system: BT-549
[32] = system: M14
[33] = system: UO-31
[34] = system: CCRF-CEM
[35] = system: HOP-62
[36] = system: K562
[37] = system: A498
[38] = system: MDA-MB-231
[39] = system: MCF7
[40] = system: COLO 205
[41] = system: HCT-15
[42] = system: UACC-257
[43] = system: Malme-3M
[44] = system: T47D
[45] = system: KM12
[46] = system: RPMI-8226
[47] = system: RXF 393
[48] = system: EKVX
[49] = system: NCI-H226
[50] = system: SN12C
[51] = system: NCI-H23
[52] = system: SF-268
[53] = system: MDA-N

CCc1ccc(Nc2cc(=O)n(C)c(SCc3ccccc3)n2)cc1
GI50 [1]: 29 µM (inactive)
GI50 [2]: > 100 µM (inactive)
GI50 [3]: > 100 µM (inactive)
GI50 [4]: > 100 µM (inactive)
GI50 [5]: 36.1 µM (inactive)
GI50 [6]: 21.9 µM (inactive)
GI50 [7]: 30.2 µM (inactive)
GI50 [8]: 20.3 µM (inactive)
GI50 [9]: > 100 µM (inactive)
GI50 [10]: > 100 µM (inactive)
GI50 [11]: 85.1 µM (inactive)
GI50 [12]: > 100 µM (inactive)
GI50 [13]: 97.3 µM (inactive)
GI50 [14]: 52.6 µM (inactive)
GI50 [15]: 17.5 µM (inactive)
GI50 [16]: > 100 µM (inactive)
GI50 [17]: 30.8 µM (inactive)
GI50 [18]: 18.2 µM (inactive)
GI50 [19]: 80.4 µM (inactive)
GI50 [20]: 41.6 µM (inactive)
GI50 [21]: 51.2 µM (inactive)
GI50 [22]: > 100 µM (inactive)
GI50 [23]: > 100 µM (inactive)
GI50 [24]: 29.4 µM (inactive)
GI50 [25]: 35.7 µM (inactive)
GI50 [26]: 83.9 µM (inactive)
GI50 [27]: 39.8 µM (inactive)
GI50 [28]: 57.4 µM (inactive)
GI50 [29]: 75.3 µM (inactive)
GI50 [30]: 33 µM (inactive)
GI50 [31]: > 100 µM (inactive)
GI50 [32]: > 100 µM (inactive)
GI50 [33]: > 100 µM (inactive)
GI50 [34]: 78 µM (inactive)
GI50 [35]: 69.3 µM (inactive)
GI50 [36]: > 100 µM (inactive)
GI50 [37]: 14.5 µM (inactive)
GI50 [38]: 59.7 µM (inactive)
GI50 [39]: 28.6 µM (inactive)
GI50 [40]: 12.7 µM (inactive)
GI50 [41]: 62.2 µM
GI50 [42]: > 100 µM (inactive)
GI50 [43]: 57.3 µM (inactive)
GI50 [44]: 95.3 µM (inactive)
GI50 [45]: 66.4 µM (inactive)
GI50 [46]: > 10 µM (inactive)
GI50 [47]: 23.1 µM (inactive)
GI50 [48]: 60.5 µM (inactive)
GI50 [49]: 33.4 µM (inactive)
GI50 [50]: 20 µM (inactive)
GI50 [51]: > 100 µM (inactive)
GI50 [52]: 97.7 µM (inactive)
GI50 [53]: > 100 µM (inactive)
